Series [1] relates to zebrafish embryos. Description: Zebrafish embryo acute toxicity assay (CZNCs). The format is in vivo, zebrafish (Danio rerio), AB strain. The protocol: Fertilized embryos of wild type AB zebrafish strains (Danio rerio) were collected in E3 egg medium in Petri dishes. At 3 hours post-fertilization (hpf), unfertilized and abnormal embryos were discarded. The fertilized embryos were dechorionated with pronase at 24-hpf and retained in 6 well-plates containing E3 egg medium. Next, E3 egg medium was replaced by the different concentrations of drugs to be tested.
We investigated the toxicology of CZNCs nanomaterial with an acute toxicity assay adapted by the Organization of Economic Co-operation and Development (OECD) guideline for testing chemical toxicity (No 203 and 236) and modified it for nanoparticle testing. The purified (acetic acid-free) lyophilized CZNCs nanomaterial was weighted and dissolved in DI water, then sonicated in a water bath for 15 min for several cycles until a complete homogeneous solution is achieved. Next, 24-hpf healthy dechorionated embryos were transferred to 6 well-plate containing the following treatment dissolved in E3 egg medium: (i) four different concentrations (25, 50, 100, 250 μg/mL) of CZNCs (ii) the positive control DEAB ([…]), (iii) the negative control 0.1% DMSO and then incubated at 28.5° C. for an additional 72 h until their age reached 96-hpf. Cumulative survival and mortality were recorded at 3-time point intervals (48, 72, and 96 hpf), In addition, all embryos were observed every day for any teratogenic abnormalities. […] A total of 100 embryos were used for each tested dose condition of the CZNCs, and 20 embryos for DEAB and DMSO concentrations. The toxicity assessment was expressed as a percentage of survived embryos for 96-hpf. Teratogenic score was presented as average standard error of mean. This value was calculated at every stage as the sum of different teratogenic phenotypes, expressed in percentage respect to the total number of possible teratogenic phenotypes at that precise stage of observation.

For series [2], the system named is zebrafish embryos. Description: Zebrafish embryo acute toxicity assay (CNLS-NCs). The conditions noted are these: exposure 24-72 hpf. The format is in vivo, zebrafish (AB strain). The protocol: We used wild type zebrafish embryos (AB strain) in our study. For detailed information about our zebrafish aquatic system (Aquaneering, USA), original source of the zebrafish, zebrafish culture, mating protocol, and animal protocol guidelines, the reader is advised to visit the following articles. For the acute toxicity assay, at 24-hours post fertilization (hpf), embryos were dechorionated as described in. Briefly, E3 media were removed and 0.5 mg/mL of pronase enzyme (Sigma, Germany) in 10 mL PTU-E3 media was added and incubated for 10 min at 28° C. until the chorion become soft. Then, embryos were washed 2-3 times with PTU-E3 medium until the embryos were released and free from the chorion. […] The mortality rate and teratogenicity (morphological deformities) were observed and recorded at 2-time point intervals (48 and 72-hpf) using a standard stereo microscope (Zeiss, Germany). The teratogenic effects of both nanoparticles were determined based on the normal embryo morphology of the negative control (FIG. 9A), and abnormal morphology [defects in body size, heart and yolk edema, scoliosis, pigmentation, and movement problem (FIG. 9B)] of the positive control. Teratogenicity was scored at 72-hpf by calculating the number of dead and deformed embryos over the total number of […] embryos used in each concentration (50 embryos). […]

Series [3] concerns SRB induced corrosion on carbon steel (SS400). Description: EIS of carbon steel (SS400) coupons incubated in SRB media with CLNC / CS@LS. The following applies: SRB with 5% GA. The protocol:
The carbon steel coupons were incubated in liquid medium containing enriched SRB biomass (250 mg·VSS/L) along with modified Postage's C medium in simulated inject seawater. […] 200 ml plastic bottles were used for the incubation experiments. The coupons were incubated without CLNC to evaluate the SRB induced corrosion on carbon steel. In next stage, the optimum conditions of the nanocomposite have been verified by using different ratio nanocomposites as well as optimum concentration has been tested by using different concentrations of optimum ratio CLNC. Then the optimum concentration of CLNC were added in the incubating mixture to evaluate the corrosion inhibition imparted by the nanocomposite at different time intervals. The abiotic conditions were made by incubating coupons in same manner without any SRB and nanocomposite to differentiate the SRB induced corrosion from chemical corrosion. All incubation experiments were performed in anaerobic chamber to maintain the anaerobic condition throughout the experiments. […]
EIS analysis was carried out using Gamry potentiostat (Gamry 600+, FA, USA) using the SRB treated carbon steel coupon as a working electrode, calomel and graphite disk electrodes as reference and counter electrodes, respectively. […] The EIS measurements were recorded at an open circuit potential with a 10 mV sinusoidal signal over the frequency range of 0.01-10^5 Hz Before the EIS measurements, steady state conditions were achieved by keeping the whole setup at open circuit potential (OCP) for 30 min. Potentiodynamic polarization curves were measured by scanning the potential from −250 mV to +250 mV vs OCP at a sweep rate of 0.167 mV/s. The experimental results were analyzed by Gamry Echem Analyst software version 7.05.
The mixed SRB culture was enriched from sludge biomass obtained from an offshore oil filed in Qatar. […] The optimum concentration of CS@LS was evaluated in the range of 0-1000 μg·mL^−1 CS@LS and EIS analysis was performed after 10 days of incubation. […]

A word on the LC50: it is the concentration lethal to half of the exposed cells or organisms. For the compound `CCN(CC)c1ccc(C=O)cc1` [DEAB, Diethylaminobenzaldehyde], the LOEC in the series with zebrafish embryos [1] (96-hpf, =>20% mortality) was found to be 1.0 µM. In addition, the cumulative mortality in the series on zebrafish embryos [1] (DEAB 1.0 μM, 96-hpf) worked out at 60%; with zebrafish embryos [1] (DEAB at NOEC (0.1), 96-hpf), 10%. For the same compound, the LC50 is 0.94 µM in the series on zebrafish embryos [1] (sigmoidal curve, 95% confidence limit) and 2.5 µM in the series on zebrafish embryos [2].

Take `O=CCCCC=O` [GA, glutaraldehyde]: in series [3], the bacterial growth result is recorded as “complete bacterial growth can be inhibited”. In series [3] (15 days), the Rct is 158.8 Ω·cm^2 and the Rf is 136.4 Ω·cm^2.

The values above are taken from patent US12516179B2, “Chitosan-based nanocomposite as an antimicrobial agent and corrosion inhibitor” (priority 2019, dated 2026).
